Values joined by “and” are separate entries in the source; they are usually repeats but may differ in a detail not shown here. Equal entries are not always repeated. Toxic doses and inconclusive results are not listed.
System: CD2F1 mice, L1210 leukemia ip, survival T/C
Experiment: NCI In Vivo Anticancer Drug Screen. Data for tumor model L1210 Leukemia (intraperitoneal) in CD2F1 (CDF1) mice
Conditions: higher = longer survival
Method in brief: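 Vehicle-treated tumor-bearing mice served as controls (C) for compound-treated mice (T). Reported figure is T divided by C.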

[1] = endpoint: mean survival time, dose: 100.0 mg/kg/injection, schedule: Q04DX003 (ip), vehicle: saline with Tween-80
[2] = endpoint: mean survival time, dose: 100.0 mg/kg/injection, schedule: Q01DX001 (ip), vehicle: saline with Tween-80
[3] = endpoint: mean survival time, dose: 200.0 mg/kg/injection, schedule: Q01DX001 (ip), vehicle: saline with Tween-80
[4] = endpoint: mean survival time, dose: 400.0 mg/kg/injection, schedule: Q01DX001 (ip), vehicle: saline with Tween-80

## [NH-]C(CO)C(=O)O.[NH-]C(CO)C(=O)O.[Pd+2] (configuration not stated)
endpoint: mean survival time, dose: 3.13 mg/kg/injection, schedule: Q04DX003 (ip), vehicle: distilled water + Tween-80
  T/C: 104 % of control
endpoint: mean survival time, dose: 3.13 mg/kg/injection, schedule: Q04DX003 (ip), vehicle: saline
  T/C: 114 % of control
endpoint: mean survival time, dose: 3.13 mg/kg/injection, schedule: Q04DX003 (ip), vehicle: water
  T/C: 95 % of control
endpoint: mean survival time, dose: 6.25 mg/kg/injection, schedule: Q04DX003 (ip), vehicle: distilled water + Tween-80
  T/C: 96 % of control
endpoint: mean survival time, dose: 6.25 mg/kg/injection, schedule: Q04DX003 (ip), vehicle: saline
  T/C: 94 % of control
endpoint: mean survival time, dose: 6.25 mg/kg/injection, schedule: Q04DX003 (ip), vehicle: water
  T/C: 95 % of control
endpoint: mean survival time, dose: 12.5 mg/kg/injection, schedule: Q04DX003 (ip), vehicle: distilled water + Tween-80
  T/C: 98 % of control
endpoint: mean survival time, dose: 12.5 mg/kg/injection, schedule: Q04DX003 (ip), vehicle: saline
  T/C: 102 % of control
endpoint: mean survival time, dose: 12.5 mg/kg/injection, schedule: Q04DX003 (ip), vehicle: water
  T/C: 97 % of control
endpoint: mean survival time, dose: 25.0 mg/kg/injection, schedule: Q04DX003 (ip), vehicle: distilled water + Tween-80
  T/C: 95 % of control
endpoint: mean survival time, dose: 25.0 mg/kg/injection, schedule: Q04DX003 (ip), vehicle: saline
  T/C: 103 % of control
endpoint: mean survival time, dose: 25.0 mg/kg/injection, schedule: Q04DX003 (ip), vehicle: water
  T/C: 96 % of control
endpoint: mean survival time, dose: 50.0 mg/kg/injection, schedule: Q04DX003 (ip), vehicle: distilled water + Tween-80
  T/C: 98 % of control
endpoint: mean survival time, dose: 50.0 mg/kg/injection, schedule: Q04DX003 (ip), vehicle: saline
  T/C: 107 % of control
endpoint: mean survival time, dose: 50.0 mg/kg/injection, schedule: Q04DX003 (ip), vehicle: water
  T/C: 105 % of control
endpoint: mean survival time, dose: 100.0 mg/kg/injection, schedule: Q04DX003 (ip), vehicle: distilled water + Tween-80
  T/C: 102 % of control
endpoint: mean survival time, dose: 100.0 mg/kg/injection, schedule: Q04DX003 (ip), vehicle: saline
  T/C: 106 % of control
endpoint: mean survival time, dose: 100.0 mg/kg/injection, schedule: Q04DX003 (ip), vehicle: water
  T/C: 91 % of control

## Cn1c(=S)sc2ccccc21
endpoint: mean survival time, dose: 25.0 mg/kg/injection, schedule: Q04DX003 (ip), vehicle: Klucel (hydroxypropylcellulose) (HPC)
  T/C: 101 % of control
endpoint: mean survival time, dose: 50.0 mg/kg/injection, schedule: Q04DX003 (ip), vehicle: Klucel (hydroxypropylcellulose) (HPC)
  T/C: 109 % of control
[1]
  T/C: 110 % of control

## Nc1nc([Se]Cc2ccc([N+](=O)[O-])cc2)c2ncn(C3OC(CO)C(O)C3O)c2n1 (configuration not stated)
endpoint: mean survival time, dose: 25.0 mg/kg/injection, schedule: Q01DX009 (ip), vehicle: saline
  T/C: 111 % of control
endpoint: mean survival time, dose: 50.0 mg/kg/injection, schedule: Q01DX009 (ip), vehicle: saline
  T/C: 119 % of control
endpoint: mean survival time, dose: 100.0 mg/kg/injection, schedule: Q01DX009 (ip), vehicle: saline
  T/C: 100 % of control

## Cc1c(CNc2ccc(C(=O)NC(CC(=O)O)C(=O)O)cc2)ccc2nc(N)nc(N)c12 (configuration not stated)
endpoint: mean survival time, dose: 0.18 mg/kg/injection, schedule: Q01DX009 (ip), vehicle: saline
  T/C: 173 % of control
endpoint: mean survival time, dose: 0.39 mg/kg/injection, schedule: Q01DX009 (ip), vehicle: saline
  T/C: 121 % of control
endpoint: mean survival time, dose: 0.78 mg/kg/injection, schedule: Q01DX009 (ip), vehicle: saline with Tween-80
  T/C: 94 % of control
endpoint: mean survival time, dose: 0.78 mg/kg/injection, schedule: Q01DX009 (ip), vehicle: saline
  T/C: 107 % of control
endpoint: mean survival time, dose: 1.56 mg/kg/injection, schedule: Q01DX009 (ip), vehicle: saline
  T/C: 86 % of control and 95 % of control
endpoint: mean survival time, dose: 3.12 mg/kg/injection, schedule: Q01DX009 (ip), vehicle: saline
  T/C: 93 % of control
endpoint: mean survival time, dose: 6.25 mg/kg/injection, schedule: Q01DX009 (ip), vehicle: saline
  T/C: 92 % of control
endpoint: mean survival time, dose: 25.0 mg/kg/injection, schedule: Q01DX001 (ip), vehicle: saline
  T/C: 170 % of control
endpoint: mean survival time, dose: 50.0 mg/kg/injection, schedule: Q01DX001 (ip), vehicle: saline
  T/C: 117 % of control

## CC1CCCN(N=Nc2ccc(Br)cc2-c2nc(N)c3cc(Br)ccc3n2)C1 (configuration not stated)
endpoint: mean survival time, dose: 100.0 mg/kg/injection, schedule: Q01DX001 (ip), vehicle: Klucel (hydroxypropylcellulose) (HPC)
  T/C: 103 % of control
endpoint: mean survival time, dose: 400.0 mg/kg/injection, schedule: Q01DX001 (ip), vehicle: Klucel (hydroxypropylcellulose) (HPC)
  T/C: 90 % of control

## COc1ccc2c3c(ccc2c1)C1CCC(=O)C1(C)CC3 (configuration not stated)
endpoint: mean survival time, dose: 100.0 mg/kg/injection, schedule: Q01DX009 (ip), vehicle: saline with Tween-80
  T/C: 102 % of control
endpoint: mean survival time, dose: 200.0 mg/kg/injection, schedule: Q01DX009 (ip), vehicle: saline with Tween-80
  T/C: 96 % of control
endpoint: mean survival time, dose: 400.0 mg/kg/injection, schedule: Q01DX009 (ip), vehicle: saline with Tween-80
  T/C: 98 % of control

## CC(C)(C)C1=C(N=[N+]=[N-])C(=O)C(C(C)(C)C)=C(N=[N+]=[N-])C1=O
endpoint: mean survival time, dose: 100.0 mg/kg/injection, schedule: Q01DX001 (ip), vehicle: other
  T/C: 104 % of control
endpoint: mean survival time, dose: 200.0 mg/kg/injection, schedule: Q01DX001 (ip), vehicle: other
  T/C: 104 % of control
endpoint: mean survival time, dose: 400.0 mg/kg/injection, schedule: Q01DX001 (ip), vehicle: other
  T/C: 101 % of control

## CN(C)c1ccc(/C=C/c2nc3ccccc3o2)cc1
endpoint: mean survival time, dose: 100.0 mg/kg/injection, schedule: Q04DX003 (ip), vehicle: Klucel (hydroxypropylcellulose) (HPC)
  T/C: 96 % of control
endpoint: mean survival time, dose: 200.0 mg/kg/injection, schedule: Q04DX003 (ip), vehicle: Klucel (hydroxypropylcellulose) (HPC)
  T/C: 100 % of control
endpoint: mean survival time, dose: 400.0 mg/kg/injection, schedule: Q04DX003 (ip), vehicle: Klucel (hydroxypropylcellulose) (HPC)
  T/C: 102 % of control

## CCOC(=O)c1ccc2c(ccc[n+]2C)c1
endpoint: mean survival time, dose: 37.5 mg/kg/injection, schedule: Q01DX009 (ip), vehicle: saline with Tween-80
  T/C: 112 % of control
endpoint: mean survival time, dose: 75.0 mg/kg/injection, schedule: Q01DX009 (ip), vehicle: saline with Tween-80
  T/C: 107 % of control
endpoint: mean survival time, dose: 150.0 mg/kg/injection, schedule: Q01DX009 (ip), vehicle: saline with Tween-80
  T/C: 103 % of control

## CCC[CH2][Pb]([CH2]CCC)([CH2]CCC)[O]C(C)=O
endpoint: mean survival time, dose: 2.5 mg/kg/injection, schedule: Q01DX001 (ip), vehicle: other
  T/C: 96 % of control
endpoint: mean survival time, dose: 5.0 mg/kg/injection, schedule: Q01DX001 (ip), vehicle: other
  T/C: 115 % of control
endpoint: mean survival time, dose: 10.0 mg/kg/injection, schedule: Q01DX001 (ip), vehicle: other
  T/C: 93 % of control
endpoint: mean survival time, dose: 25.0 mg/kg/injection, schedule: Q04DX003 (ip), vehicle: saline with Tween-80
  T/C: 95 % of control
endpoint: mean survival time, dose: 50.0 mg/kg/injection, schedule: Q04DX003 (ip), vehicle: saline with Tween-80
  T/C: 87 % of control

## Nc1nc(=O)n(CCCOc2ccccc2NC(=O)c2cccc(S(=O)(=O)F)c2)cc1-c1ccc(Cl)c(Cl)c1
[2]
  T/C: 91 % of control
[3]
  T/C: 95 % of control
[4]
  T/C: 98 % of control

## O=C1OC(c2ccc(Cl)cc2)=N/C1=C\c1ccccc1
endpoint: mean survival time, dose: 100.0 mg/kg/injection, schedule: Q01DX009 (ip), vehicle: acetone
  T/C: 97 % of control
endpoint: mean survival time, dose: 200.0 mg/kg/injection, schedule: Q01DX009 (ip), vehicle: acetone
  T/C: 101 % of control

## CCCCCCCCCCCCCCCCOc1ccc(C(=O)CC(=O)OC)cc1
[2]
  T/C: 86 % of control
[3]
  T/C: 89 % of control
[4]
  T/C: 91 % of control

## COC(=N)/C(C#N)=N/C1OCC(O)C(O)C1O (configuration not stated)
endpoint: mean survival time, dose: 12.5 mg/kg/injection, schedule: Q01DX005 (ip), vehicle: other
  T/C: 101 % of control
endpoint: mean survival time, dose: 25.0 mg/kg/injection, schedule: Q01DX005 (ip), vehicle: other
  T/C: 102 % of control
endpoint: mean survival time, dose: 50.0 mg/kg/injection, schedule: Q01DX005 (ip), vehicle: other
  T/C: 102 % of control
endpoint: mean survival time, dose: 100.0 mg/kg/injection, schedule: Q01DX005 (ip), vehicle: other
  T/C: 102 % of control
endpoint: mean survival time, dose: 200.0 mg/kg/injection, schedule: Q01DX005 (ip), vehicle: other
  T/C: 101 % of control

## CS(=O)(=O)Nc1ccc(C(=O)CCN2CCCCCC2)cc1
endpoint: median survival time, dose: 25.0 mg/kg/injection, schedule: Q01DX009 (ip), vehicle: saline
  T/C: 98 % of control
endpoint: median survival time, dose: 50.0 mg/kg/injection, schedule: Q01DX009 (ip), vehicle: saline
  T/C: 101 % of control
endpoint: median survival time, dose: 100.0 mg/kg/injection, schedule: Q01DX009 (ip), vehicle: saline
  T/C: 98 % of control

## NC1CS(=O)(=O)CC1O (configuration not stated)
[1]
  T/C: 98 % of control
endpoint: mean survival time, dose: 200.0 mg/kg/injection, schedule: Q04DX003 (ip), vehicle: saline with Tween-80
  T/C: 96 % of control
endpoint: mean survival time, dose: 400.0 mg/kg/injection, schedule: Q04DX003 (ip), vehicle: saline with Tween-80
  T/C: 95 % of control

## Cc1c(N=NN(C)C)cc[n+]([O-])c1C
endpoint: mean survival time, dose: 11.0 mg/kg/injection, schedule: Q01DX009 (ip), vehicle: water
  T/C: 121 % of control
endpoint: mean survival time, dose: 25.0 mg/kg/injection, schedule: Q01DX009 (ip), vehicle: water
  T/C: 157 % of control
endpoint: mean survival time, dose: 37.5 mg/kg/injection, schedule: Q01DX009 (ip), vehicle: water
  T/C: 159 % of control

## Nc1ncnc2c1[nH]c(=O)n2C1OC(CO)C(O)C1O (configuration not stated)
endpoint: mean survival time, dose: 100.0 mg/kg/injection, schedule: Q04DX002 (ip), vehicle: saline with Tween-80
  T/C: 95 % of control
endpoint: mean survival time, dose: 200.0 mg/kg/injection, schedule: Q04DX002 (ip), vehicle: saline with Tween-80
  T/C: 107 % of control
endpoint: mean survival time, dose: 400.0 mg/kg/injection, schedule: Q04DX002 (ip), vehicle: saline with Tween-80
  T/C: 95 % of control

From PubChem BioAssay AID256 (DTP/NCI, 2004)
